In US12433882B2, “Treatments for amyotrophic lateral sclerosis using dazucorilant” (Corcept Therapeutics Incorporated, priority 2022, dated 2025):
pKi: −log10 of the molar value. “Also recorded” adds a separate entry of the source.

Key:
[1] = target: T1, GR (Rattus norvegicus, UniProt P06536); experiment: Inhibition of dexamethasone effect on TAT activity, rat hepatoma cell line; type: cell-based; details: read-out: Kc, inhibition of dexamethasone effects on TAT activity
T1 construct: endogenous in cells
T1 sequence (P06536 1-795): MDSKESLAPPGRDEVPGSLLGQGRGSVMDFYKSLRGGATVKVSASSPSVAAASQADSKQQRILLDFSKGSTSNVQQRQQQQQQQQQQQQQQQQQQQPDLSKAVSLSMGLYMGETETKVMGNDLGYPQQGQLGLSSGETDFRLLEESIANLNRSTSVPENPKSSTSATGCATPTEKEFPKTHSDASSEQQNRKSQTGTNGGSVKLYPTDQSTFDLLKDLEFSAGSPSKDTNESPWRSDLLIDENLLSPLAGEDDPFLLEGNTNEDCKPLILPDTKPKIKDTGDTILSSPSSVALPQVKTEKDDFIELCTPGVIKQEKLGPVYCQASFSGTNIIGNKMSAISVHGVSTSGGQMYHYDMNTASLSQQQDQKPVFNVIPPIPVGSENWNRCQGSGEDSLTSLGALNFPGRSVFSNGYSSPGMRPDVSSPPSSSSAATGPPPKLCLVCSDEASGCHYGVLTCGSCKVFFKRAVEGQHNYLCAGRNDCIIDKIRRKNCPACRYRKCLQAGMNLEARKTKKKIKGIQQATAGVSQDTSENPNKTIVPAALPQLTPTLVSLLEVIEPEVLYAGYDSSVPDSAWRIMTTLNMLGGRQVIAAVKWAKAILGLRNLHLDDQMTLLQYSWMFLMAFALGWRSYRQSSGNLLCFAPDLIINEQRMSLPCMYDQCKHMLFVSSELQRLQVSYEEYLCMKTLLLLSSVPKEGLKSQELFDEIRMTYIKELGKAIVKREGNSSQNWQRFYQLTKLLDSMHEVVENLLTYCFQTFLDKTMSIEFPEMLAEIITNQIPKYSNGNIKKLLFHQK

[2] = Brain penetration study, multiple oral dose PK in plasma and CSF; type: in vivo, human
Experimental: An adaptive dose, double-blind, placebo-controlled study (NCT04249323, EudraCT 2019-004258-27) was conducted in 110 healthy male and female volunteers (18-60 years old; BMI 18-30 kg/m2; weight≤102 kg; “First In Human” (FIH) study).

[3] = target: T2, GR (Homo sapiens, UniProt P04150); experiment: Inhibition of dexamethasone effect on TAT activity, human liver carcinoma cell line; type: cell-based; design: endogenous in cells; host or cells: human liver carcinoma cell line (probably HepG2, inferred); details: read-out: Ki, inhibition of dexamethasone effects on TAT activity
T2 sequence (P04150 1-777): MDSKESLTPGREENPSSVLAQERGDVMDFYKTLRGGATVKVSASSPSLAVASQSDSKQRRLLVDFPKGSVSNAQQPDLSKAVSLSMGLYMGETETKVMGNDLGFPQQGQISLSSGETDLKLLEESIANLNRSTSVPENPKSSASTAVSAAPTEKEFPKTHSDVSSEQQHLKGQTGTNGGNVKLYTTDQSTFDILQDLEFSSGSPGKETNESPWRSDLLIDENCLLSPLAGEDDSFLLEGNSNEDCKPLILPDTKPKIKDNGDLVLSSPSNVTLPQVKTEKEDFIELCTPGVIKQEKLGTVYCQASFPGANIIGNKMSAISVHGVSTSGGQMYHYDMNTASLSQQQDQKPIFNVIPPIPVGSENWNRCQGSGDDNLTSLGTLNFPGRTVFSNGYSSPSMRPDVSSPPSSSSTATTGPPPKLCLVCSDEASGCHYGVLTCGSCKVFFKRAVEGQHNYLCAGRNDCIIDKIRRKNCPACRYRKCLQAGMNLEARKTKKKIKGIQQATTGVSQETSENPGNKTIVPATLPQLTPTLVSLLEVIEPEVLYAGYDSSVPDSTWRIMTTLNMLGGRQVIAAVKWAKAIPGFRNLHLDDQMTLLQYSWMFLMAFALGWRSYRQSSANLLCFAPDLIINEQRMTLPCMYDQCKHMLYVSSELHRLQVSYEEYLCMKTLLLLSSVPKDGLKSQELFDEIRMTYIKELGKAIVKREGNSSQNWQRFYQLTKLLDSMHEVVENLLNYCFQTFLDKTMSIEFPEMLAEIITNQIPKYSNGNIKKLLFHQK
Text: The term “glucocorticoid receptor modulator” (GRM) refers to any compound which modulates glucocorticoid binding to GR, or which modulates any biological response associated with the binding of GR to an agonist. For example, a GRM that acts as an agonist, such as dexamethasone, increases the activity of tyrosine aminotransferase (TAT) in HepG2 cells (a human liver hepatocellular carcinoma cell line; ECACC, UK). A GRM that acts as an antagonist, such as mifepristone, decreases the activity of tyrosine aminotransferase (TAT) in HepG2 cells.

O=C(c1ccccn1)[C@]12Cc3cnn(-c4ccc(F)cc4)c3C=C1CCN(S(=O)(=O)c1ccc(C(F)(F)F)cc1)C2 [dazucorilant, (R)-(1-(4-fluorophenyl)-6-((4-(trifluoromethyl)phenyl)sulfonyl)-4,4a, 5,6,7,8-hexahydro-1-H-pyrazolo[3,4-g]isoquinolin-4a-yl) (pyridin-2-yl)methanone]
pKi [1]: 8.38
dose proportionality of exposures ([2]; 300 mg relative to 150 mg, daily for 14 days): greater than dose-proportional increase in dazucorilant exposures
detection in the CSF ([2]; 1 week of QD dosing, 150 mg and 300 mg, fed): detectable in the CSF in all study participants
time to steady state of exposure ([2]; QD dosing): ≤ 1 week
distribution to the cerebrospinal fluid (CSF) ([2]; oral administration, healthy volunteers): distribution of dazucorilant is observed in the cerebrospinal fluid; also recorded: distribution to the CSF was observed
steady state exposures (Cmax, AUC0-24), 300 vs. 150 mg ([2]; steady state, QD dosing): approximately 4 fold
pKi [3]: 7.85
